# Source: patent US11439641B2, “Pyrimidine JAK inhibitors for the treatment of skin diseases” (THERAVANCE BIOPHARMA R&D IP, LLC, priority 2019, dated 2022)
# What was measured:
# [1] = test system: Caco-2 cell monolayer; assay: Caco-2 Permeation Assay; format: in vitro ADME; conditions: Papp, 5 μM compound; for Cacoverap Kp 10^−6 cm/sec: A→B in the presence of 25 μM verapamil (P-gp inhibitor); for Caco Kp 10^−6 cm/sec: apical to basal (A→B)
# Outline: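 Compound at 5 μM, in duplicate, crosses Caco-2 monolayers apical to basal over 120 min at 37 °C. This is run with and without 25 μM verapamil to test for P-gp efflux. Samples are quantified by LC-MS/MS, and Papp in cm/sec is calculated as dQ/(dt × area × concentration).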
# [2] = target: JAK2 (Homo sapiens (Human), UniProt O60674); assay: Biochemical JAK and Tyk2 Kinase Assays (LanthaScreen), JAK2; conditions: 3 μM ATP (Km); pIC50 converted to pKi by Cheng-Prusoff
# Chain of JAK2 (O60674 whole entry): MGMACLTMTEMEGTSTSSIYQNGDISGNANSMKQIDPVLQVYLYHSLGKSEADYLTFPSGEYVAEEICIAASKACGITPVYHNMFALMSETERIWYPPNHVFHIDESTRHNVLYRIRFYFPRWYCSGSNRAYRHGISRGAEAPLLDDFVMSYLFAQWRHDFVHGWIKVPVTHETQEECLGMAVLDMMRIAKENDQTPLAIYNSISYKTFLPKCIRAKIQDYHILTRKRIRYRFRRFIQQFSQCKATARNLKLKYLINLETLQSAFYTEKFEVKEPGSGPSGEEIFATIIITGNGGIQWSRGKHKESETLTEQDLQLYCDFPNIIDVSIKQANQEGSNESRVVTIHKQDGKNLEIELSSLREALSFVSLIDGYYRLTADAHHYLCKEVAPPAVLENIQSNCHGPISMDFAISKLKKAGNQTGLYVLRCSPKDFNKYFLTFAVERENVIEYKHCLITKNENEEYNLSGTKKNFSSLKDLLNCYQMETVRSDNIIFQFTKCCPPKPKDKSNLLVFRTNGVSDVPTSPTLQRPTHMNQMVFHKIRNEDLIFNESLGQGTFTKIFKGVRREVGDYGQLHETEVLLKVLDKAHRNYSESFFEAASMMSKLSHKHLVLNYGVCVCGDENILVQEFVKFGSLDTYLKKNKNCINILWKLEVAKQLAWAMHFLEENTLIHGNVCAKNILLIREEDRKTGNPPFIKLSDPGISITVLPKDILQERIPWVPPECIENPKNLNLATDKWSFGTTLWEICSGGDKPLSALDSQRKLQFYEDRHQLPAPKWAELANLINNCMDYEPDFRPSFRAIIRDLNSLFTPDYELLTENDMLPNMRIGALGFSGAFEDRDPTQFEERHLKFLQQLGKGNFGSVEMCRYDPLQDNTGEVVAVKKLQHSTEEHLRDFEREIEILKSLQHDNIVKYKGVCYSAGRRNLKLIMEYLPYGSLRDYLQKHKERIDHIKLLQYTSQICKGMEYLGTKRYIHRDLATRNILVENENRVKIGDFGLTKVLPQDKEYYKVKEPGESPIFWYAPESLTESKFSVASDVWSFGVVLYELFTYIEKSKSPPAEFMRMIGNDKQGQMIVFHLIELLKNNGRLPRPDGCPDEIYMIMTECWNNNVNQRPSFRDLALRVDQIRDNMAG
# Method: (§1) Assay 1: Biochemical JAK and Tyk2 Kinase Assays
# (§2) A panel of four LanthaScreen JAK biochemical assays (JAK1, 2, 3 and Tyk2) were carried in a common kinase reaction buffer (50 mM HEPES, pH 7.5, 0.01% Brij-35, 10 mM MgCl2, and 1 mM EGTA). Recombinant GST-tagged JAK enzymes and a GFP-tagged STAT1 peptide substrate were obtained from Life Technologies.
# (§3) Serially or discretely diluted compounds were pre-incubated with each of the four JAK enzymes and the substrate in white 384-well microplates (Corning) at ambient temperature for 1 h. ATP was subsequently added to initiate the kinase reactions in 10 μL total volume, with 1% DMSO. The final enzyme concentrations for JAK1, 2, 3 and Tyk2 are 4.2 nM, 0.1 nM, 1 nM, and 0.25 nM respectively; the corresponding Km ATP concentrations used are 25 μM, 3 μM, 1.6 μM, and 10 μM; while the substrate concentration is 200 nM for all four assays. Kinase reactions were allowed to proceed for 1 hour at ambient temperature before a 10 μL preparation of EDTA (10 mM final concentration) and Tb-anti-pSTAT1 (pTyr701) antibody (Life Technologies, 2 nM final concentration) in TR-FRET dilution buffer (Life Technologies) was added. The plates were allowed to incubate at ambient temperature for 1 h before being read on the EnVision reader (Perkin Elmer). Emission ratio signals (520 nm/495 nm) were recorded and utilized to calculate the percent inhibition values based on DMSO and background controls.
# (§4) For dose-response analysis, percent inhibition data were plotted vs. compound concentrations, and IC50 values were determined from a 4-parameter robust fit model with the Prism software (GraphPad Software). Results were expressed as pIC50 (negative logarithm of IC50) and subsequently converted to pKi (negative logarithm of dissociation constant, Ki) using the Cheng-Prusoff equation.
# [3] = target: Tyk2 (Homo sapiens (Human), UniProt P29597); assay: Biochemical JAK and Tyk2 Kinase Assays (LanthaScreen), Tyk2; conditions: 10 μM ATP (Km); pIC50 converted to pKi by Cheng-Prusoff
# Chain of Tyk2 (P29597 whole entry): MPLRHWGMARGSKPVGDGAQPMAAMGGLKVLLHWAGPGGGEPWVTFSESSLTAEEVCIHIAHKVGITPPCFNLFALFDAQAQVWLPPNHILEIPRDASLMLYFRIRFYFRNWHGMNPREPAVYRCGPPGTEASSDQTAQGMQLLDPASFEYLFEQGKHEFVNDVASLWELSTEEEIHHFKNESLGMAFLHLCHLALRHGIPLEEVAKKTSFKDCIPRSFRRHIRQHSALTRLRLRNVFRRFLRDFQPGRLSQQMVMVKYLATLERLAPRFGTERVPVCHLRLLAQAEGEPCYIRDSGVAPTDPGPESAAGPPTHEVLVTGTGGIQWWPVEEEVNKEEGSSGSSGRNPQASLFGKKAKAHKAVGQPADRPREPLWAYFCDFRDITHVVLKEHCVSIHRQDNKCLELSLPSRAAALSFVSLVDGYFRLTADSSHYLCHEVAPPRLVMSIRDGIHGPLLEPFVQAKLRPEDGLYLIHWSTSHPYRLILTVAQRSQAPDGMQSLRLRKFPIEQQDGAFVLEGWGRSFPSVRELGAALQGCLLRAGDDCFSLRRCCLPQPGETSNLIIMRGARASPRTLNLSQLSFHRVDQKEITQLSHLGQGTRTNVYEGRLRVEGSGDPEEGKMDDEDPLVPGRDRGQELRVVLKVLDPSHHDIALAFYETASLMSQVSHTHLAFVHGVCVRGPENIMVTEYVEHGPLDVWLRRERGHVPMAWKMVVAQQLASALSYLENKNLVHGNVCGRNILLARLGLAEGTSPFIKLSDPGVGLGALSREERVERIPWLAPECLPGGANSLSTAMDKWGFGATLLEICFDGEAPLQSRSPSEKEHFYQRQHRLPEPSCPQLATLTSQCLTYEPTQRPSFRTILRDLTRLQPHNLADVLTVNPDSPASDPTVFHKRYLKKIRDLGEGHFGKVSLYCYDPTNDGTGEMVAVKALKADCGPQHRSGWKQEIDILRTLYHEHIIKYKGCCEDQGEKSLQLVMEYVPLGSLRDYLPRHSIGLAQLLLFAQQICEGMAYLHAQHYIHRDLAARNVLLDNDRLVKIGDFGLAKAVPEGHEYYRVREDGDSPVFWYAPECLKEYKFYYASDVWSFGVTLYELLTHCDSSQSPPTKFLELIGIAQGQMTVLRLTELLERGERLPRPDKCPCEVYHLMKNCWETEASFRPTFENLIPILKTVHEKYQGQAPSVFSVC
# Method: as §1, §2, §3, §4
# [4] = target: JAK1 (Homo sapiens (Human), UniProt P23458); assay: Biochemical JAK and Tyk2 Kinase Assays (LanthaScreen), JAK1; conditions: 25 μM ATP (Km); pIC50 converted to pKi by Cheng-Prusoff
# Chain of JAK1 (P23458 whole entry): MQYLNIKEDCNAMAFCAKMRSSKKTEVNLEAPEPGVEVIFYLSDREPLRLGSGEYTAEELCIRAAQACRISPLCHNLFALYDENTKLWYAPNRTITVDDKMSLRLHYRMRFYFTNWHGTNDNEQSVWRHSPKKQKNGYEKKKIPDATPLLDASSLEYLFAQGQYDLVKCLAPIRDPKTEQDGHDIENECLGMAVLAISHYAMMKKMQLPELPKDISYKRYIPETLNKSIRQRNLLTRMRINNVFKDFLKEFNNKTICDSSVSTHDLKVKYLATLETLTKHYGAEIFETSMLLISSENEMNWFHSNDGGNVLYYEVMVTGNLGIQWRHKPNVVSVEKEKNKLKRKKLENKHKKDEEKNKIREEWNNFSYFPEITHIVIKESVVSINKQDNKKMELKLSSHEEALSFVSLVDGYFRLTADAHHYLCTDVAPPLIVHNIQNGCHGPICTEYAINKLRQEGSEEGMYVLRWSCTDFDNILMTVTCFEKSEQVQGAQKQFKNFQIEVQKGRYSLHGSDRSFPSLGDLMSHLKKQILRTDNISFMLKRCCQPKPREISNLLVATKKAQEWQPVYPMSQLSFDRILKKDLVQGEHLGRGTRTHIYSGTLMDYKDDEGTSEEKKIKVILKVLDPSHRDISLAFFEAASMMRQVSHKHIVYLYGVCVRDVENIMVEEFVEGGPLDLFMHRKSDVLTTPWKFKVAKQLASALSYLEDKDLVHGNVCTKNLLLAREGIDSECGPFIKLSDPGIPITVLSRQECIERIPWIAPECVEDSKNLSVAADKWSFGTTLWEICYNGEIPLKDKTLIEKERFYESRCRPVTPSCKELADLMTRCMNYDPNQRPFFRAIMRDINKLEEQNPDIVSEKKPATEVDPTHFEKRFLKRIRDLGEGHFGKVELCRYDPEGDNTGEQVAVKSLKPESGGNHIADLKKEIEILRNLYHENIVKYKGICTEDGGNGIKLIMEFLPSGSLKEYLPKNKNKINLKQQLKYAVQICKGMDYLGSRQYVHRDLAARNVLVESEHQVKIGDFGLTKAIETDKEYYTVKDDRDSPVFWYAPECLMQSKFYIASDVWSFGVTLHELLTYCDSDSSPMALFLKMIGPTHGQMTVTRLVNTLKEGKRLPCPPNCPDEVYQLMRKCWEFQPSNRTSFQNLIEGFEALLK
# [5] = target: JAK3 (Homo sapiens (Human), UniProt P52333); assay: Biochemical JAK and Tyk2 Kinase Assays (LanthaScreen), JAK3; conditions: 1.6 μM ATP (Km); pIC50 converted to pKi by Cheng-Prusoff
# Chain of JAK3 (P52333 whole entry): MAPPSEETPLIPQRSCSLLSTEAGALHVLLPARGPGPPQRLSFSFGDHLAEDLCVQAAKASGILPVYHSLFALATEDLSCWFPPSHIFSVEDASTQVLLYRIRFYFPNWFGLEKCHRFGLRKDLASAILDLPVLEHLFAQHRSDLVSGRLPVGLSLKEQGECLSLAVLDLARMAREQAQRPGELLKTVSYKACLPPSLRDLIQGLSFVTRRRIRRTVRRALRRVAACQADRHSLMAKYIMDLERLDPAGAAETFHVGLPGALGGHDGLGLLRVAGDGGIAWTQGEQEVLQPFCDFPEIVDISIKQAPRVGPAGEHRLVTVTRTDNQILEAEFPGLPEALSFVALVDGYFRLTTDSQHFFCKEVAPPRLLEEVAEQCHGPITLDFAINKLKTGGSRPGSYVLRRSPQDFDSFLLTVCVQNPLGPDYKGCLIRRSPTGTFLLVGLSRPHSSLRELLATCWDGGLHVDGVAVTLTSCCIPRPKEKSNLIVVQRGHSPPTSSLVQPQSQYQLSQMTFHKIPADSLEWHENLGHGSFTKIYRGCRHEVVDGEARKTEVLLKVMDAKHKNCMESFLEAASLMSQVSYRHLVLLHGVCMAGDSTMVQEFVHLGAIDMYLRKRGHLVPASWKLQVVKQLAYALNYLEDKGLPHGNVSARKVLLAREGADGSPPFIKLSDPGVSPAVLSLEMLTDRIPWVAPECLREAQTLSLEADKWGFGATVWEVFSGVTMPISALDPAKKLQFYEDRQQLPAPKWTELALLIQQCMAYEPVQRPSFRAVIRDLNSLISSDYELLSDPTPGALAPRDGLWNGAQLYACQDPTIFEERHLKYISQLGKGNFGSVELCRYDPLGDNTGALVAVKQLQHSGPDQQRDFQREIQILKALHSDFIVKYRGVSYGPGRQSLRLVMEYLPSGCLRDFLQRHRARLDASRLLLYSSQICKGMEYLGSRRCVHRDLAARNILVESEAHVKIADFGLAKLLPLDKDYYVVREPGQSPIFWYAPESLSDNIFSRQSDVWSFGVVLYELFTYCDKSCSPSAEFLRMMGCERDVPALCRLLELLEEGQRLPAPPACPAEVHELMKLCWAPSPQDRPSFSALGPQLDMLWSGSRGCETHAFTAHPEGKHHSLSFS
# [6] = Aqueous Solubility Assay; conditions: PBS buffer pH 7.4; maximum upper limit 1,000 μM
# Method: Assay 5: Aqueous Solubility Assay
# The purpose of this assay was to quantify the solubility of test compounds in pH 4 and pH 7.4 PBS buffers. The assay required 40 μL of 10 mM DMSO test compound solution per desired buffer in addition to 20 μL required to make a test standard. For example, to test a compound in both buffers, 100 μL (2*40 μL+20 μL) of 10 mM DMSO compound stock solution was required.
# The standard was created by diluting 20 μL of 10 mM DMSO compound stock solution into 180 μL of methanol and was shaken for five minutes to ensure solution uniformity. […] This 1,000 μM solution was run on an Agilent 1260 LC-MS system by injecting 2 μL in order to obtain the peak area. For the test solutions, 40 μL of 10 mM DMSO compound stock solution, per PBS buffer condition, were dried down into a powder overnight. Once in powder form, 400 μL of the desired PBS buffer was added to the powder and allowed to shake vigorously for four hours. The maximum theoretical concentration for this sample solution was 1,000 μM. After four hours of shaking, the samples were centrifuged for 10 minutes at 3,000 RPM before injecting 2 μL on the same Agilent 1260 LC-MS system to obtain the peak area.
# In Table 6 below, A represents a value above 500, B represents a value between 250 and 500, C represents a value between 50 and 250, D represents a value between 10 and 50, and E represents a value below 10.
# [7] = Human Liver Microsome Assay; conditions: human liver microsomes 0.1 mg/mL, 0.1 μM compound, 1 mM NADPH, 37° C.
# Method: Assay 4: Human Liver Microsome Assay
# The objective of this assay was to assess the metabolic stability of test compounds in an in vitro human liver sub-fraction. Human liver microsomes obtained from Bioreclamation-IVT (Baltimore, Md.) were thawed on ice and diluted into 0.1 M potassium phosphate buffer pH 7.4 to yield final incubation protein concentrations of 0.1 mg/mL. Test compounds (10 mM) were diluted into NADPH cofactor to yield final incubation concentrations of 0.1 μM test compound and 1 mM NADPH. Incubations were conducted at 37° C. temperature and test aliquots were taken at time points 0, 5, 8, 15, 30 and 45 minutes. Each aliquot was crashed into water with 3% formic acid and 1 μM internal standard. The resulting samples were injected onto an LC-MS/MS system for analysis.
# For each incubation, the peak area of the analytes in each t0 aliquot was set to 100% and the peak areas from subsequent time point aliquots were converted to percentage of parent compound remaining relative to t0. The percentage of parent compound remaining was converted to natural log scale and plotted versus time in minutes. A linear regression analysis was performed for the initial decline of the parent disappearance profile and a formula for the best-fit line determined. The slope of the resultant line was normalized to protein concentration in mg/mL protein or number of cells/mL and CLint was calculated as follows for liver microsomes: CLint(μL·min^−1·mg^−1)=(Slope×1000)/[protein,mg/mL]
# CLint values from 9-49 μl/min/mg represent moderate clearance (i.e. 30-70% of hepatic blood flow in human) and values >50 μl/min/mg represent high hepatic clearance (i.e. >70% of hepatic blood flow in human).
# [8] = test system: IL-2 stimulated pSTAT5 in Tall-1 T cells; assay: Inhibition of IL-2 Stimulated pSTAT5 in Tall-1 T Cells; format: cell-based; conditions: Tall-1 human T cell line, IL-2 300 ng/mL, AlphaLisa
# Outline: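 Cells preincubated with compound 1 hour at 37° C, then stimulated with IL-2 (final 300 ng/mL) for 30 minutes. After lysis, pSTAT5 (Tyr694/699) read by AlphaLISA luminescence. IC50 from inhibition curves, reported as pIC50 (mean±SD).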
# [9] = Solubility Assay in Organic Excipients; conditions: maximum upper limit 20,000 μM
# Method: Assay 6: Solubility Assay in Organic Excipients
# The purpose of this assay was to quantify the solubility of test compounds in different organic excipients such as diisopropyl adipate, medium chain triglycerides (MCT), propylene glycol, and polyethylene glycol. The assay required 80 μL of 100 mM DMSO test compound solution per desired excipient in addition to 40 μL required to make a test standard.
# The standard was created by diluting 40 μL of 100 mM DMSO compound stock solution into 160 μL of methanol and was shaken for five minutes to ensure solution uniformity. […] This 20,000 μM solution was run on an Agilent 1260 LC-MS system by injecting 0.2 μL in order to obtain the peak area. For the test solutions, 80 μL of 100 mM DMSO compound stock solution, per excipient, were dried down into a powder overnight. Once in powder form, 400 μL of the desired excipient was added to the powder and allowed to shake vigorously for four hours. The maximum theoretical concentration for this sample solution was 20,000 μM. After four hours of shaking, the samples were centrifuged for 10 minutes at 3,000 RPM before injecting 0.2 μL on the same Agilent 1260 LC-MS system to obtain the peak area.
SMILES,Cacoverap Kp 10^−6 cm/sec [1],Caco Kp 10^−6 cm/sec [1],JAK 2 (pKi) [2],Tyk 2 (pKi) [3],JAK 1 (pKi) [4],JAK 3 (pKi) [5],Solubility at PH 7.4 (μmol) [6],HLM Clin μL/min/mg [7],Tall-1 IL2 pSTAT5 (pIC50) [8],Solubility in PEG400 (mg/mL) ([9]; PEG400),Solubility in Diisopropyl adipate (mg/mL) ([9]; diisopropyl adipate),Solubility in MCT (mg/mL) ([9]; medium chain triglycerides (MCT)),Solubility in Propylene glycol (mg/mL) ([9]; propylene glycol)
CCS(=O)(=O)N1[C@@H]2CCC[C@H]1C[C@H](N(C)c1nc(Nc3cc(C)[nH]n3)cc([C@@H]3CCCO3)n1)C2 [Compound 10],A (A represents a value above 35×10^−6 cm/sec),A (A represents a value above 30×10^−6 cm/sec),A (A represents a pKi value ≥10 (Ki≤0.1 nM)),A (A represents a pKi value ≥10 (Ki≤0.1 nM)),A (A represents a pKi value ≥10 (Ki≤0.1 nM)),B (B represents a pKi value between 9 and 10 (Ki between 1 nM and 0.1 nM)),C (C represents a value between 50 and 250),A (A represents a Clint value between 1250 and 3000),A (A represents a pIC50 value ≥8.0),–,–,–,–
"CCS(=O)(=O)N1[C@@H]2CCC[C@H]1C[C@H](N(C)c1nc(Nc3cc(C)[nH]n3)cc(C3CCOC3)n1)C2 (stereo partly drawn) [Compound 5, N^2-((1R,3s,5S)-9-(ethylsulfonyl)-9-azabicyclo[3.3.1]nonan-3-yl)-N2-methyl-N4-(5-methyl-1H-pyrazol-3-yl)-6-(tetrahydrofuran-3-yl)pyrimidine-2,4-diamine]",A (A represents a value above 35×10^−6 cm/sec),A (A represents a value above 30×10^−6 cm/sec),–,–,A (A represents a pKi value ≥10 (Ki≤0.1 nM)),B (B represents a pKi value between 9 and 10 (Ki between 1 nM and 0.1 nM)),E (E represents a value below 10),A (A represents a Clint value between 1250 and 3000),A (A represents a pIC50 value ≥8.0),A (A represents a value above 10),B (B represents a value between 5 and 10),C (C represents a value below 5),A (A represents a value above 10)
CCS(=O)(=O)N1[C@@H]2CCC[C@H]1C[C@H](N(C)c1nc(Nc3cc(C)[nH]n3)cc([C@H]3CCCO3)n1)C2 [Compound 9],A (A represents a value above 35×10^−6 cm/sec),A (A represents a value above 30×10^−6 cm/sec),A (A represents a pKi value ≥10 (Ki≤0.1 nM)),A (A represents a pKi value ≥10 (Ki≤0.1 nM)),A (A represents a pKi value ≥10 (Ki≤0.1 nM)),B (B represents a pKi value between 9 and 10 (Ki between 1 nM and 0.1 nM)),C (C represents a value between 50 and 250),A (A represents a Clint value between 1250 and 3000),A (A represents a pIC50 value ≥8.0),–,–,–,–
